Source: patent US11866450B2, “Modulators of Cystic Fibrosis Transmembrane Conductance regulator, pharmaceutical compositions, methods of treatment, and process for making the modulators” (priority 2018, dated 2024)

Molecular target: CFTR-mediated chloride transport (Homo sapiens, UniProt P13569)
Type: cell-based
Settings: enteroid cells incubated with test compound 18-24 hours, acute 10 μM forskolin and 300 nM Compound III; for Max. Activity: % of chloride transport with 3 μM Compound A, 3 μM Compound II and 300 nM acute Compound III triple combination control
In short: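 Human intestinal enteroid cells incubated with compound 18–24 h at 37° C., then membrane potential dye (FLIPR) read 15 min after chloride-free stimulation with 10 μM forskolin, 100 μM IBMX and 300 nM Compound III. AUC expressed as % of triple-combination control (3 μM Compound A, 3 μM Compound II, 300 nM Compound III).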

CFTR-mediated chloride transport, sequence (P13569 whole entry, looked up): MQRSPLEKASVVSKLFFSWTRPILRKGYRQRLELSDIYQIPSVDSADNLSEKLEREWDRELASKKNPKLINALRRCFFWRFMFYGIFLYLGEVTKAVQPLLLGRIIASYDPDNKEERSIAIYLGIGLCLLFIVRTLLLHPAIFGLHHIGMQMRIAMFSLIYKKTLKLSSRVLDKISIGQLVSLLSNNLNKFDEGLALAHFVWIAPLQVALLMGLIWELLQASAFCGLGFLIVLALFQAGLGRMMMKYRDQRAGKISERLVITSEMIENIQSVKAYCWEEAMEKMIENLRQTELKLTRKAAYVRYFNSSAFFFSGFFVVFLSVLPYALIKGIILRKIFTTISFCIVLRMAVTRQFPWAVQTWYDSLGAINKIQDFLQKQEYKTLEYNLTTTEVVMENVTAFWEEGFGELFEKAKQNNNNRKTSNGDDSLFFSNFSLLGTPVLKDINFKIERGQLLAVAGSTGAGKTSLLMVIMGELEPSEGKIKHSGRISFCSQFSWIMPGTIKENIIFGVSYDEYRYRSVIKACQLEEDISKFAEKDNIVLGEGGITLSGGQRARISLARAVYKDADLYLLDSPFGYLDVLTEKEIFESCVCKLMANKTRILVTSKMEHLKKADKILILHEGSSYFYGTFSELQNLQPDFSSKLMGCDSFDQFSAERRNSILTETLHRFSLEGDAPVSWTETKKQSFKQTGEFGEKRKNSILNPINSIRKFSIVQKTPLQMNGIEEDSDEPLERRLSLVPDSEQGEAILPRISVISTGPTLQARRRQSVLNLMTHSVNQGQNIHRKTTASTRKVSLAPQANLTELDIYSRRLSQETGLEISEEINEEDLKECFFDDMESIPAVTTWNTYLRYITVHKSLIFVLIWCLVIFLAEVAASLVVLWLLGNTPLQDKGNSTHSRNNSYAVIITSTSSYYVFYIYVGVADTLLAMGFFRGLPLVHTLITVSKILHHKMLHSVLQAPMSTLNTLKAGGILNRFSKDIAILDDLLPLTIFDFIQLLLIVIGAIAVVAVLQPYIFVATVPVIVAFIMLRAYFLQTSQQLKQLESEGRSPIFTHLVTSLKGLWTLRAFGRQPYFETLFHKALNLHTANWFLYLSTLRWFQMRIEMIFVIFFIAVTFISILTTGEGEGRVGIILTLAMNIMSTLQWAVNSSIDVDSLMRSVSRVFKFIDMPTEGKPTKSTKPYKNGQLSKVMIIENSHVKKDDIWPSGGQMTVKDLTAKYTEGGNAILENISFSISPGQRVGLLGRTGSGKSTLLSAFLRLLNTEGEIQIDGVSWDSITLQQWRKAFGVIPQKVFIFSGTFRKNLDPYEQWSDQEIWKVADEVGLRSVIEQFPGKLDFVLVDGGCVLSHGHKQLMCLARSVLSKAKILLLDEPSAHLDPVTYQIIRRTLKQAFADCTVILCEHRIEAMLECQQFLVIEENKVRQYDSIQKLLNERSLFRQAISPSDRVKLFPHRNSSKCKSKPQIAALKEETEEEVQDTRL

Row | Structure (SMILES) | EC50 | Max. Activity
1 | CC1(C)C[C@@H]2CCCNc3cccc(n3)S(=O)(=O)NC(=O)c3ccc(N4CC5CCCCN5C4=O)nc3N1C2 (stereo partly drawn) [Compound 213, (14S)-12,12-dimethyl-8-{3-oxo-octahydroimidazo[1,5-a]pyridin-2-yl}-2λ^6-thia-3,9,11,18,23-pentaazatetracyclo[17.3.1.111,14.05,10]tetracosa-1(23),5(10),6,8,19,21-hexaene-2,2,4-trione] | > 3 µM | + (+ is <30%)
2 | CC(C)(C)CC[C@H]1CCN(c2ccc3c(n2)N2C[C@@H](CCCNc4cccc(n4)S(=O)(=O)NC3=O)CC2(C)C)C1=O (single isomer, unassigned) [Compound 127] | < 1 µM | +++ (+++ is >60%)
3 | CC1(C)C[C@@H]2CCCNc3cccc(n3)S(=O)(=O)NC(=O)c3ccc(N4CCN(C56CC7CC(CC(C7)C5)C6)C4=O)nc3N1C2 [Compound 230, (14S)-8-[3-(Adamantan-1-yl)-2-oxoimidazolidin-1-yl]-12,12-dimethyl-2λ^6-thia-3,9,11,18,23-pentaazatetracyclo[17.3.1.111,14.05,10]tetracosa-1(22),5,7,9,19(23),20-hexaene-2,2,4-trione] | < 1 µM | + (+ is <30%)
4 | CC1(C)C[C@@H]2CCCNc3cccc(n3)S(=O)(=O)NC(=O)c3ccc(N4CCN(CCC56CC7CC(CC(C7)C5)C6)C4=O)nc3N1C2 [Compound 228, (14S)-8-{3-[2-(Adamantan-1-yl)ethyl]-2-oxoimidazolidin-1-yl}-12,12-dimethyl-2λ^6-thia-3,9,11,18,23-pentaazatetracyclo[17.3.1.111,14.05,10]tetracosa-1(22),5,7,9,19(23),20-hexaene-2,2,4-trione] | < 1 µM | ++ (++ is 30-60%)
5 | CC1(C)C[C@H]2CCNc3cccc(n3)S(=O)(=O)NC(=O)c3ccc(-n4ccc(OCCC5(C(F)(F)F)CC5)n4)nc3N1C2 (single isomer, unassigned) [Compound 26, 7,7-dimethyl-11-(3-{2-[1-(trifluoromethyl)cyclopropyl]ethoxy}-1H-pyrazol-1-yl)-17λ^6-thia-2,8,10,16,22-pentaazatetracyclo[16.3.1.15,8.09,14]tricosa-1(21),9,11,13,18(22),19-hexaene-15,17,17-trione] | < 1 µM | +++ (+++ is >60%)
6 | CC1(C)C[C@H]2CCCNc3cccc(n3)S(=N)(=O)NC(=O)c3ccc(-n4ccc(OCCC5(C(F)(F)F)CC5)n4)nc3N1C2 (single isomer, unassigned) [Compound 272, 2-imino-12,12-dimethyl-8-(3-{2-[1-(trifluoromethyl)cyclopropyl]ethoxy}-1H-pyrazol-1-yl)-2λ^6-thia-3,9,11,18,23-pentaazatetracyclo[17.3.1.111,14.05,10]tetracosa-1(23),5,7,9,19,21-hexaene-2,4-dione] | > 3 µM | + (+ is <30%)
7 | CC(C)(C)CCCO[C@H]1CCN(c2ccc3c(n2)N2C[C@@H](CCCNc4cccc(n4)S(=O)(=O)NC3=O)CC2(C)C)C1=O (single isomer, unassigned) [Compound 247] | < 1 µM | +++ (+++ is >60%)
8 | CC1(C)C[C@@H]2CCCNc3cccc(n3)S(=O)(=O)NC(=O)c3ccc(-n4ccc(OCC(O)C5C6(CC6)C56CC6)n4)nc3N1C2 (stereo partly drawn) [Compound 257, (14S)-8-[3-(2-{dispiro[2.0.2.1]heptan-7-yl}-2-hydroxyethoxy)-1H-pyrazol-1-yl]-12,12-dimethyl-2λ^6-thia-3,9,11,18,23-pentaazatetracyclo[17.3.1.111,14.05,10]tetracosa-1(22),5,7,9,19(23),20-hexaene-2,2,4-trione] | < 1 µM | +++ (+++ is >60%)
9 | CC1(C)CCC2CNc3cccc(n3)S(=O)(=O)NC(=O)c3ccc(-n4ccc(OCCC5(C(F)(F)F)CC5)n4)nc3N21 (centres unmarked) [Compound 41, 7,7-dimethyl-11-(3-{2-[1-(trifluoromethyl)cyclopropyl]ethoxy}-1H-pyrazol-1-yl)-17λ^6-thia-2,8,10,16,22-pentaazatetracyclo[16.3.1.04,8.09,14]docosa-1(22),9,11,13,18,20-hexaene-15,17,17-trione] | > 3 µM | + (+ is <30%)
10 | CC1(C)CC[C@H]2CCCNc3cccc(n3)S(=O)(=O)NC(=O)c3ccc(-n4ccc(OCCC5(C(F)(F)F)CC5)n4)nc3N21 [Compound 34, (15R)-12,12-dimethyl-8-(3-{2-[1-(trifluoromethyl)cyclopropyl]ethoxy}-1H-pyrazol-1-yl)-2λ^6-thia-3,9,11,19,24-pentaazatetracyclo[18.3.1.05,10.011,15]tetracosa-1(23),5,7,9,20(24),21-hexaene-2,2,4-trione] | < 1 µM | +++ (+++ is >60%)
11 | CC1(C)C[C@H]2CCCCc3cccc(c3)S(=O)(=O)NC(=O)c3ccc(-n4ccc(OCCC5(C(F)(F)F)CC5)n4)nc3N1C2 (single isomer, unassigned) [Compound 57, 12,12-dimethyl-8-(3-{2-[1-(trifluoromethyl)cyclopropyl]ethoxy}-1H-pyrazol-1-yl)-2λ^6-thia-3,9,11-triazatetracyclo[17.3.1.111,14.05,10]tetracosa-1(22),5,7,9,19(23),20-hexaene-2,2,4-trione] | < 1 µM | ++ (++ is 30-60%)
12 | CC1(C)C[C@H]2CCCn3ccc(n3)S(=O)(=O)NC(=O)c3ccc(-n4ccc(OCCC5C(C)(C)C5(C)C)n4)nc3N1C2 (single isomer, unassigned) [Compound 206, 20,20-dimethyl-4-{3-[2-(2,2,3,3-tetramethylcyclopropyl)ethoxy]-1H-pyrazol-1-yl}-10λ^6-thia-1,3,9,14,22-pentaazatetracyclo[16.2.1.111,14.02,7]docosa-2(7),3,5,11(22),12-pentaene-8,10,10-trione] | < 1 µM | + (+ is <30%)
13 | Cc1c2cnn1CCCC1CN(c3nc(-n4ccc(OCC(C)(C)C(F)(F)F)n4)ccc3C(=O)NS2(=O)=O)C(C)(C)C1 (single isomer, unassigned) [Compound 288, 20,20,22-trimethyl-4-[3-(3,3,3-trifluoro-2,2-dimethylpropoxy)-1H-pyrazol-1-yl]-10λ^6-thia-1,3,9,13,14-pentaazatetracyclo[16.2.1.111,14.02,7]docosa-2,4,6,11(22),12-pentaene-8,10,10-trione] | 1 to 3 µM | + (+ is <30%)
14 | Cc1cc2nn1CCC[C@H]1CN(c3nc(-n4ccc(OCCC5(C(F)(F)F)CC5)n4)ccc3C(=O)NS2(=O)=O)C(C)(C)C1 (single isomer, unassigned) [Compound 151, 13,20,20-trimethyl-4-(3-{2-[1-(trifluoromethyl)cyclopropyl]ethoxy}-1H-pyrazol-1-yl)-10λ^6-thia-1,3,9,14,22-pentaazatetracyclo[16.2.1.111,14.02,7]docosa-2,4,6,11(22),12-pentaene-8,10,10-trione] | < 1 µM | +++ (+++ is >60%)
15 | CC1(C)C[C@H]2CCCn3ccc(n3)S(=O)(=O)NC(=O)c3ccc(-n4ccc(OCCC(C5CC5)C5CC5)n4)nc3N1C2 (single isomer, unassigned) [Compound 154, 4-[3-(3,3-dicyclopropylpropoxy)-1H-pyrazol-1-yl]-20,20-dimethyl-10λ^6-thia-1,3,9,14,22-pentaazatetracyclo[16.2.1.111,14.02,7]docosa-2,4,6,11(22),12-pentaene-8,10,10-trione] | < 1 µM | +++ (+++ is >60%)
16 | CC1(C)C[C@H]2CCCCNc3ccc(cn3)S(=O)(=O)NC(=O)c3ccc(-n4ccc(OCCC5(C(F)(F)F)CC5)n4)nc3N1C2 (single isomer, unassigned) [Compound 67, 12,12-dimethyl-8-(3-{2-[1-(trifluoromethyl)cyclopropyl]ethoxy}-1H-pyrazol-1-yl)-2λ^6-thia-3,9,11,19,21-pentaazatetracyclo[18.2.2.111,14.05,10]pentacosa-1(23),5,7,9,20(24),21-hexaene-2,2,4-trione] | < 1 µM | +++ (+++ is >60%)
17 | CC1(C)C[C@@H]2CCCNc3cc(O)cc(n3)S(=O)(=O)NC(=O)c3ccc(-n4ccc(OCCCC5(C(F)(F)F)CC5)n4)nc3N1C2 [Compound 265, (14S)-21-Hydroxy-12,12-dimethyl-8-(3-{3-[1-(trifluoromethyl)cyclopropyl]propoxy}-1H-pyrazol-1-yl)-2λ^6-thia-3,9,11,18,23-pentaazatetracyclo[17.3.1.111,14.05,10]tetracosa-1(22),5,7,9,19(23),20-hexaene-2,2,4-trione] | < 1 µM | +++ (+++ is >60%)
18 | Cc1c2cnn1CCCC1CN(c3nc(-n4ccc(OCC(C)(C)C(F)(F)F)n4)ccc3C(=O)NS2(=O)=O)C(C)(C)C1 (centres unmarked) [Compound 282, 20,20,22-trimethyl-4-[3-(3,3,3-trifluoro-2,2-dimethylpropoxy)-1H-pyrazol-1-yl]-10λ^6-thia-1,3,9,13,14-pentaazatetracyclo[16.2.1.111,14.02,7]docosa-2,4,6,11(22),12-pentaene-8,10,10-trione] | > 3 µM | + (+ is <30%)
19 | CC1(C)C[C@H]2CCCCNc3cccc(n3)S(=O)(=O)NC(=O)c3ccc(-n4ccc(OCCC5(C(F)(F)F)CC5)n4)nc3N1C2 (single isomer, unassigned) [Compound 29, 12,12-dimethyl-8-(3-{2-[1-(trifluoromethyl)cyclopropyl]ethoxy}-1H-pyrazol-1-yl)-2λ^6-thia-3,9,11,19,24-pentaazatetracyclo[18.3.1.111,14.05,10]pentacosa-1(23),5,7,9,20(24),21-hexaene-2,2,4-trione] | < 1 µM | ++ (++ is 30-60%)
